Results: ChEMBL document CHEMBL4033793, “Potent and Selective Inhibitors of Human Sirtuin 5” (J Med Chem, 2018)
Residues, ends and D or L forms follow the SMILES beside them. *: point of attachment. X13 = O=C(O)[C@@H](CC(=O)*)SCc1cccc([N+](=O)[O-])c1; X49 = O=C(O)[C@H](CC(=O)*)SCc1cccc(C(F)(F)F)c1; X63 = O=C(O)[C@@H](CC(=O)*)SCc1ccc(Cl)c(Cl)c1; X39 = O=C(O)[C@H](CC(=O)*)Sc1cc(Cl)cc(Cl)c1; X24 = O=C(O)[C@H](CC(=O)*)SCc1ccc(Cl)cc1Cl; X41 = O=C(O)[C@@H](CC(=O)*)Sc1cc(Cl)ccc1Cl; X66 = COc1ccc(CS[C@@H](CC(=O)*)C(=O)O)cc1; X22 = COc1ccc(CS[C@H](CC(=O)*)C(=O)O)cc1; X47 = O=C(O)[C@@H](CC(=O)*)SCc1ccccc1Cl; X48 = O=C(O)[C@@H](CC(=O)*)SCCCc1ccccc1; X34 = O=C(O)[C@@H](CC(=O)*)Sc1ccccc1Cl; X73 = O=C(O)[C@H](CC(=O)*)SCc1ccccc1Cl; X54 = O=C(O)[C@H](CC(=O)*)SCCc1ccccc1; X7 = O=C(O)C(CC(=O)*)SCCc1ccncc1; Bz = O=C(c1ccccc1)*

Each compound was assayed against NAD-dependent protein deacylase sirtuin-5, mitochondrial (Homo sapiens, UniProt Q9NXA8) (assay: Inhibition of human recombinant N-terminal Strep2-tagged SIRT5 expressed in Escherichia coli BL21 (DE3) using Abz-GVLK(glutaryl)AY(NO2)GV-NH2 as substrate in presence of NAD+ by fluorescence assay).
NAD-dependent protein deacylase sirtuin-5, mitochondrial, sequence (Q9NXA8 whole entry): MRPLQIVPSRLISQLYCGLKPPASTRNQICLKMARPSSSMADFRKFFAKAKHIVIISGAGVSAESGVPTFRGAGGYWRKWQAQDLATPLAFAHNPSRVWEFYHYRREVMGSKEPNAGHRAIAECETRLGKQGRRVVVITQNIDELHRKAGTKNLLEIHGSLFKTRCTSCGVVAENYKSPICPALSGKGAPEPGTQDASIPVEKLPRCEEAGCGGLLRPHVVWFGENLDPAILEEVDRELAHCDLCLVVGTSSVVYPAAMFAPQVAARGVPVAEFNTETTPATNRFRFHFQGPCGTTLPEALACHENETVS

SMILES | IC50 [nM]
CCCCNC(=O)C[C@H](Sc1ccc2ccccc2c1)C(=O)O | 154000
CC(C)C[C@H](NC(=O)[C@@H](NC(=O)CNC(=O)c1ccccc1)C(C)C)C(=O)N[C@@H](CCCCNC(=O)C[C@@H](SCc1cccc([N+](=O)[O-])c1)C(=O)O)C(=O)N[C@@H](CCC(=O)O)C(=O)N[C@@H](Cc1ccc(O)cc1)C(=O)NCC(=O)N[C@H](C(N)=O)C(C)C (Bz-GVLK(X13)EYGV-NH2) | 2670
CC(C)C[C@H](NC(=O)[C@@H](NC(=O)CNC(=O)c1ccccc1)C(C)C)C(=O)N[C@@H](CCCCNC(=O)CC(SCCc1ccncc1)C(=O)O)C(=O)N[C@@H](CCC(=O)O)C(=O)N[C@@H](Cc1ccc(O)cc1)C(=O)NCC(=O)N[C@H](C(N)=O)C(C)C (stereo partly specified) (Bz-GVLK(X7)EYGV-NH2) | 13200
O=C(C[C@H](Sc1ccc2ccccc2c1)C(=O)O)Nc1ccccc1 | 157000
CC(C)C[C@H](NC(=O)[C@@H](NC(=O)CNC(=O)c1ccccc1)C(C)C)C(=O)N[C@@H](CCCCNC(=O)C[C@@H](SCCCc1ccccc1)C(=O)O)C(=O)N[C@@H](CCC(=O)O)C(=O)N[C@@H](Cc1ccc(O)cc1)C(=O)NCC(=O)N[C@H](C(N)=O)C(C)C (Bz-GVLK(X48)EYGV-NH2) | 2060
CC(C)C[C@H](NC(=O)[C@@H](NC(=O)CNC(=O)c1ccccc1)C(C)C)C(=O)N[C@@H](CCCCNC(=O)C[C@@H](Sc1ccccc1Cl)C(=O)O)C(=O)N[C@@H](CCC(=O)O)C(=O)N[C@@H](Cc1ccc(O)cc1)C(=O)NCC(=O)N[C@H](C(N)=O)C(C)C (Bz-GVLK(X34)EYGV-NH2) | 3100
COc1ccc(CS[C@@H](CC(=O)NCCCC[C@H](NC(=O)[C@H](CC(C)C)NC(=O)[C@@H](NC(=O)CNC(=O)c2ccccc2)C(C)C)C(=O)N[C@@H](CCC(=O)O)C(=O)N[C@@H](Cc2ccc(O)cc2)C(=O)NCC(=O)N[C@H](C(N)=O)C(C)C)C(=O)O)cc1 (Bz-GVLK(X66)EYGV-NH2) | 1050
CC(C)C[C@H](NC(=O)[C@@H](NC(=O)CNC(=O)c1ccccc1)C(C)C)C(=O)N[C@@H](CCCCNC(=O)C[C@@H](SCc1ccccc1Cl)C(=O)O)C(=O)N[C@@H](CCC(=O)O)C(=O)N[C@@H](Cc1ccc(O)cc1)C(=O)NCC(=O)N[C@H](C(N)=O)C(C)C (Bz-GVLK(X47)EYGV-NH2) | 352
CC(C)C[C@H](NC(=O)[C@@H](NC(=O)CNC(=O)c1ccccc1)C(C)C)C(=O)N[C@@H](CCCCNC(=O)C[C@@H](SCc1ccc(Cl)c(Cl)c1)C(=O)O)C(=O)N[C@@H](CCC(=O)O)C(=O)N[C@@H](Cc1ccc(O)cc1)C(=O)NCC(=O)N[C@H](C(N)=O)C(C)C (Bz-GVLK(X63)EYGV-NH2) | 780
CC(C)C[C@H](NC(=O)[C@@H](NC(=O)CNC(=O)c1ccccc1)C(C)C)C(=O)N[C@@H](CCCCNC(=O)C[C@H](SCc1cccc(C(F)(F)F)c1)C(=O)O)C(=O)N[C@@H](CCC(=O)O)C(=O)N[C@@H](Cc1ccc(O)cc1)C(=O)NCC(=O)N[C@H](C(N)=O)C(C)C (Bz-GVLK(X49)EYGV-NH2) | 1120
CC(C)C[C@H](NC(=O)[C@@H](NC(=O)CNC(=O)c1ccccc1)C(C)C)C(=O)N[C@@H](CCCCNC(=O)C[C@@H](Sc1cc(Cl)ccc1Cl)C(=O)O)C(=O)N[C@@H](CCC(=O)O)C(=O)N[C@@H](Cc1ccc(O)cc1)C(=O)NCC(=O)N[C@H](C(N)=O)C(C)C (Bz-GVLK(X41)EYGV-NH2) | 1980
CC(C)C[C@H](NC(=O)[C@@H](NC(=O)CNC(=O)c1ccccc1)C(C)C)C(=O)N[C@@H](CCCCNC(=O)C[C@H](Sc1cc(Cl)cc(Cl)c1)C(=O)O)C(=O)N[C@@H](CCC(=O)O)C(=O)N[C@@H](Cc1ccc(O)cc1)C(=O)NCC(=O)N[C@H](C(N)=O)C(C)C (Bz-GVLK(X39)EYGV-NH2) | 86.1
CC(C)C[C@H](NC(=O)[C@@H](NC(=O)CNC(=O)c1ccccc1)C(C)C)C(=O)N[C@@H](CCCCNC(=O)C[C@H](SCc1ccccc1Cl)C(=O)O)C(=O)N[C@@H](CCC(=O)O)C(=O)N[C@@H](Cc1ccc(O)cc1)C(=O)NCC(=O)N[C@H](C(N)=O)C(C)C (Bz-GVLK(X73)EYGV-NH2) | 533
COc1ccc(CS[C@H](CC(=O)NCCCC[C@H](NC(=O)[C@H](CC(C)C)NC(=O)[C@@H](NC(=O)CNC(=O)c2ccccc2)C(C)C)C(=O)N[C@@H](CCC(=O)O)C(=O)N[C@@H](Cc2ccc(O)cc2)C(=O)NCC(=O)N[C@H](C(N)=O)C(C)C)C(=O)O)cc1 (Bz-GVLK(X22)EYGV-NH2) | 1110
CC(C)C[C@H](NC(=O)[C@@H](NC(=O)CNC(=O)c1ccccc1)C(C)C)C(=O)N[C@@H](CCCCNC(=O)C[C@H](SCCc1ccccc1)C(=O)O)C(=O)N[C@@H](CCC(=O)O)C(=O)N[C@@H](Cc1ccc(O)cc1)C(=O)NCC(=O)N[C@H](C(N)=O)C(C)C (Bz-GVLK(X54)EYGV-NH2) | 2740
CC(C)C[C@H](NC(=O)[C@@H](NC(=O)CNC(=O)c1ccccc1)C(C)C)C(=O)N[C@@H](CCCCNC(=O)C[C@H](SCc1ccc(Cl)cc1Cl)C(=O)O)C(=O)N[C@@H](CCC(=O)O)C(=O)N[C@@H](Cc1ccc(O)cc1)C(=O)NCC(=O)N[C@H](C(N)=O)C(C)C (Bz-GVLK(X24)EYGV-NH2) | 543
